27 compounds from patent US10975081B2, “Substituted fused pyrazole compounds and their use as LRRK2 inhibitors” (GlaxoSmithKline Intellectual Property Development Limited, priority 2015, dated 2021) can be followed below.

LRRK2 Ser935 phosphorylation in SH-SY5Y cells over-expressing recombinant full length LRRK2, sequence (Q5S007 whole entry): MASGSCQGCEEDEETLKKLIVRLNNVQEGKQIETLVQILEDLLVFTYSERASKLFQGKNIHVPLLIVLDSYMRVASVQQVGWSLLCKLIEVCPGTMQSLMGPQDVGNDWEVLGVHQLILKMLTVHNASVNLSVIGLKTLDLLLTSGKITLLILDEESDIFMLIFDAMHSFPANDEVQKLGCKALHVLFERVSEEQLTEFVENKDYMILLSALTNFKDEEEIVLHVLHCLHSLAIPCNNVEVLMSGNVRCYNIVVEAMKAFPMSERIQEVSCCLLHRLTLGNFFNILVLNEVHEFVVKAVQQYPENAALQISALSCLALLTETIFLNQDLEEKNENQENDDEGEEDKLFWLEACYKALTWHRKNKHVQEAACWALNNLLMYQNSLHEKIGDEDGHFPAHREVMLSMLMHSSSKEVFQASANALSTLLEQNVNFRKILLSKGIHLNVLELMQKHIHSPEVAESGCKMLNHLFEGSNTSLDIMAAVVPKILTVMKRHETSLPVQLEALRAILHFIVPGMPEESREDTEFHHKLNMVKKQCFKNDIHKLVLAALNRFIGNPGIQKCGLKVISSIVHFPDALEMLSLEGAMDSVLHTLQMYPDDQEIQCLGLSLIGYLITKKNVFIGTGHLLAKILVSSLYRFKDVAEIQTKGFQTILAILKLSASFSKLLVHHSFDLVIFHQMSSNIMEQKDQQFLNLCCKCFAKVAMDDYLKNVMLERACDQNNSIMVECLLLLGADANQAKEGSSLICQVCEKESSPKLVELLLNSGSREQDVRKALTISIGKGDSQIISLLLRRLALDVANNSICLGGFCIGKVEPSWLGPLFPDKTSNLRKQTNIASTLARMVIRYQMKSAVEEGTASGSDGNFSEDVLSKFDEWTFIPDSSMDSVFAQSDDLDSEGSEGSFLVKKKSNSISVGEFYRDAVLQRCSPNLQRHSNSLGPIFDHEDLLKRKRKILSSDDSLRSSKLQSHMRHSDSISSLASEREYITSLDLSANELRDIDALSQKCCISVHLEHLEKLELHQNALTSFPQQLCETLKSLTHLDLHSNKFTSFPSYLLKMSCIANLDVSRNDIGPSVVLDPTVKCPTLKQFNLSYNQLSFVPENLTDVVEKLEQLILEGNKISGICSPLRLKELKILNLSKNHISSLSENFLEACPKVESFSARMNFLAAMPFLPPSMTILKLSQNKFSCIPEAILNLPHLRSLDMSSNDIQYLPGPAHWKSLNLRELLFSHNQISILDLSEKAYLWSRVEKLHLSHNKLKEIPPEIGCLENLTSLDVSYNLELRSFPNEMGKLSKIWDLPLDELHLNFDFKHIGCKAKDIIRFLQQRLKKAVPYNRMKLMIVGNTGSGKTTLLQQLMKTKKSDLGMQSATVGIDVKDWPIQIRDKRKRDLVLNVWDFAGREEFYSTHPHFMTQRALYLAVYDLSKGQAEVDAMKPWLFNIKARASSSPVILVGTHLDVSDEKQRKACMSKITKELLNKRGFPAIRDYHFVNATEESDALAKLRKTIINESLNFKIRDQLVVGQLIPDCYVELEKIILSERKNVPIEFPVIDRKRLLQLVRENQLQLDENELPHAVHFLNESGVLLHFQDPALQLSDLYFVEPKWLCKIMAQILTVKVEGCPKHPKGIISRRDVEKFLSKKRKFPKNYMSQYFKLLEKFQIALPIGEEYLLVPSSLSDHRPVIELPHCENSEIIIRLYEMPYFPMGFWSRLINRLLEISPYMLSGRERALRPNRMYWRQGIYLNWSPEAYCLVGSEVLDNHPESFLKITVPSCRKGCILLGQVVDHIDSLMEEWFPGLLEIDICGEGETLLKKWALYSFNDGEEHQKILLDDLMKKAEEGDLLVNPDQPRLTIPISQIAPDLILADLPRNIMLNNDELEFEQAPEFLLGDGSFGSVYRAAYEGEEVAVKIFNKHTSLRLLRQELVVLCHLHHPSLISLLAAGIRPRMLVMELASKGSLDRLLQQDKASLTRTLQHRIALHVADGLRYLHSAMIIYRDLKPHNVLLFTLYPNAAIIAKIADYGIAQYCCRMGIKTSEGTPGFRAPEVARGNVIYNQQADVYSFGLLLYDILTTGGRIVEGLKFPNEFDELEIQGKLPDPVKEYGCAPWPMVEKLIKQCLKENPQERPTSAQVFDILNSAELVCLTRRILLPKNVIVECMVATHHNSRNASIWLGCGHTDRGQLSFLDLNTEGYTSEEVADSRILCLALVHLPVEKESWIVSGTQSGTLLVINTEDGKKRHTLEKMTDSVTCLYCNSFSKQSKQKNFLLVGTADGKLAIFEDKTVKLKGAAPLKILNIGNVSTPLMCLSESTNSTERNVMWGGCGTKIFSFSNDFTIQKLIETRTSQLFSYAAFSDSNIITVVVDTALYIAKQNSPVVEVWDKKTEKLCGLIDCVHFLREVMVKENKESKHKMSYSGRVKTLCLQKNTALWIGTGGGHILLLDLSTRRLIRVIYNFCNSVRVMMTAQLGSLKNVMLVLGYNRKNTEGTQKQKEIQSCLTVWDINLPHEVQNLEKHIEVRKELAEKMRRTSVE

This test has as its target LRRK2 Ser935 phosphorylation in SH-SY5Y cells over-expressing recombinant full length LRRK2 (Homo sapiens (Human), UniProt Q5S007). The experiment in a line: Recombinant cellular LRRK2 AlphaScreen assay. It is filed as cell-based. The note with it: 60 minutes, read-out: Recombinant cellular LRRK2 alphaScreen assay (pIC50) (converted). The text has this: To determine the activity of compounds against LRRK2 kinase activity in cells, the observed LRRK2 kinase-dependent modulation of LRRK2 Ser 935 phosphorylation (Dzamko et al., 2010, Biochem. J. 430: 405-413) was utilized to develop a quantitative 384 well plate-based immunoassay of LRRK2 Ser935 phosphorylation in the human neuroblastoma cell line SH-SY5Y, engineered to over-express recombinant full length LRRK2 protein.
A BacMam virus expressing full length recombinant LRRK2 was purchased from Invitrogen and amplified by inoculation of SF-9 cells at MOI 0.3 for 4-5 days in Sf-900 III SFM medium supplemented with 3% fetal bovine serum. Infected cell cultures were then centrifuged at 2000 g for 20 minutes, viral supernatant titer determined by anti-gp64 plaque assay and stored at 4° C.
Affinity-purified anti-phospho LRRK2 Ser935 sheep polyclonal antibody (Dzamko et al., 2010, Biochem. J. 430: 405-413) was biotinylated by standard methods (PerkinElmer). Anti-LRRK2 rabbit polyclonal antibody was purchased from Novus Biologicals. AlphaScreen Protein A IgG Kit (including acceptor and donor beads) was purchased from Perkin Elmer.
SH-SY5Y cells were grown in DMEM/F12 medium with 10% dialysed fetal bovine serum and harvested by treatment with 0.5% trypsin-EDTA for 5 minutes at 37° C. followed by centrifugation at 1000 rpm for 4 minutes. The cell pellet was resuspended in Opti-MEM reduced serum media (Invitrogen) at 200,000 cells/ml and mixed with the BacMam LRRK2 virus at M01=50. 50 μl cell solutions were then dispensed to each well of a 384-well plate and incubated at 37° C., 5% CO2 for 24 hours.
Serial dilutions of test compounds were prepared in Opti-MEM reduced serum media (Invitrogen) and 5.6 ul transferred from compound plate to cell assay plate to achieve a top final assay concentration of 10 uM. DMSO was used in certain wells as controls. Cells were incubated at 37° C., 5% CO2 for 60 minutes. The medium was then removed and cells lysed by addition of 20 ul cell lysis buffer (Cell Signaling Technology) and incubation at 4° C. for 20 minutes. 10 ul of antibody/acceptor bead mix [( 1/1000 biotinylated-pS935 LRRK2 antibody, 1/1000 total-LRRK2 antibody, 1/100 Acceptor beads in AlphaScreen detection buffer (25 mM Hepes (pH 7.4), 0.5% Triton X-100, 1 mg/ml Dextran 500 and 0.1% BSA)] was then added to each well and plates incubated for 2 hours at ambient temperature in the dark. 10 μl of donor beads solution (1/33.3 donor beads in AlphaScreen detection buffer) was then added to each well. Following incubation for a further 2 hours at ambient temperature in the dark, plates were read on an EnVision™ plate reader at emission 520-620 nm with excitation 680 nm. Dose response curve data was based on sigmoidal dose-response model.
(In Alpha technology, singlet oxygen from a donor bead excites a nearby acceptor bead.)
With `Cc1nc(N2CCO[C@@H](CO)C2)cc(-n2ncc3cc(C)c(C4CCCOC4)cc32)n1` (single isomer, unassigned) [Example E240], the IC50 is more than 10000 nM.

For the compound `Cc1cc2cnn(-c3cc(N4CCOCC4)nc(C#N)n3)c2cc1C1CCN(C)CC1(F)F` (single isomer, unassigned) [Example E9, 4-(6-(3,3-Difluoro-1-methylpiperidin-4-yl)-5-methyl-1H-indazol-1-yl)-6-morpholinopyrimidine-2-carbonitrile], the IC50 was more than 10000 nM. Regarding `CNC(=O)[C@@H]1CN(c2cc(-n3ncc4cc(C)c(C5CCN(C6COC6)CC5F)cc43)ncn2)CCO1` (single isomer, unassigned) [Example E34], the IC50 was not above 100 nM.

As for `Cc1nc(N2CC(O)C2)cc(-n2ncc3cc(C)c(C4CCOCC4F)cc32)n1` (single isomer, unassigned) [Example E246, 1-(6-(6-(3-Fluorotetrahydro-2H-pyran-4-yl)-5-methyl-1H-indazol-1-yl)-2-methylpyrimidin-4-yl)azetidin-3-ol], the IC50 was not above 100 nM.

On to `CCc1nc(N2CCOCC2)cc(-n2ncc3cc(C)c(C4CCN(C)CC4(F)F)cc32)n1` (single isomer, unassigned) [Example E11, 4-(6-(6-(3,3-Difluoro-1-methylpiperidin-4-yl)-5-methyl-1H-indazol-1-yl)-2-ethylpyrimidin-4-yl)morpholine], for which the IC50 is more than 10000 nM. For `CNC(=O)[C@@H]1CN(c2cc(-n3ncc4cc(C)c(C5CCN(CCOC)CC5F)cc43)ncn2)CCO1` (single isomer, unassigned) [Example E30], the IC50 is not above 100 nM. To `COc1nc(N2CC(O)C2)cc(-n2ncc3cc(C)c(C4(F)CCCN(C)C4)cc32)n1` (single isomer, unassigned) [Example E221, 1-(6-(6-(3-Fluoro-1-methylpiperidin-3-yl)-5-methyl-1H-indazol-1-yl)-2-methoxypyrimidin-4-yl)azetidin-3-ol] belongs more than 10000 nM. For `COCCN1CCC(c2ncc3cnn(-c4ccnc(N5CCOCC5)c4)c3n2)C(F)C1` (single isomer, unassigned) [Example E76, (cis)-4-(4-(6-(3-Fluoro-1-(2-methoxyethyl)piperidin-4-yl)-1H-pyrazolo[3,4-d]pyrimidin-1-yl)pyridin-2-yl)morpholine], the IC50 was more than 10000 nM. As to `CNC(=O)[C@H]1CN(c2cc(-n3ncc4cc(C)c(C5CCN(C6COC6)CC5F)cc43)ncn2)CCO1` (single isomer, unassigned) [Example E35], the IC50 was not above 100 nM. As for `Cc1nc(N2CCO[C@H](CO)C2)cc(-n2ncc3cc(C)c(C4CCCCO4)cc32)n1` (single isomer, unassigned) [Example E271], the figure is more than 10000 nM; as for `CCOc1nc(N2CCOCC2)cc(-n2ncc3cc(C)c(C4CCN(C5COC5)CC4(F)F)cc32)n1` (single isomer, unassigned) [Example E24, 4-(6-(6-(3,3-Difluoro-1-(oxetan-3-yl)piperidin-4-yl)-5-methyl-1H-indazol-1-yl)-2-ethoxypyrimidin-4-yl)morpholine], not above 100 nM. To `Cc1nc(N2CCO[C@@H](CO)C2)cc(-n2ncc3cc(C)c(C4CCCCO4)cc32)n1` (single isomer, unassigned) [Example E245] belongs more than 10000 nM; to `Cc1nc(N2CCO[C@@H](CO)C2)cc(-n2ncc3cc(C)c(C4CCOCC4F)cc32)n1` (single isomer, unassigned) [Example E250], not above 100 nM; to `Cc1nc(N2CC(O)C2)cc(-n2ncc3cc(C)c(C4CN(C)CCO4)cc32)n1` (single isomer, unassigned) [Example E228, 1-(2-M ethyl-6-(5-methyl-6-(4-methylmorpholin-2-yl)-1H-indazol-1-yl)pyrimidin-4-yl)azetidin-3-ol], more than 10000 nM. To `COc1nc(N2CC(O)C2)cc(-n2ncc3cc(C)c([C@@H]4CN(C)C[C@@H]4F)cc32)n1` (single isomer, unassigned) [Example E74, (cis)-1-(6-(6-(4-Fluoro-1-methylpyrrolidin-3-yl)-5-methyl-1H-indazol-1-yl)-2-methoxypyrimidin-4-yl)azetidin-3-ol] belongs more than 10000 nM; to `COc1nc(N2CC(O)C2)cc(-n2ncc3cc(C)c(C4CCN(C)C(=O)C4)cc32)n1` (single isomer, unassigned) [Example E87, 4-(1-(6-(3-Hydroxyazetidin-1-yl)-2-methoxypyrimidin-4-yl)-5-methyl-1H-indazol-6-yl)-1-methylpiperidin-2-one], more than 10000 nM. For `Cc1nc(N2CC[C@H](O)C2)cc(-n2ncc3cc(C)c(C4CCN(C)CC4F)cc32)n1` (single isomer, unassigned) [Example E128], the IC50 was not above 100 nM. With `COc1nc(N2CC(O)C2)cc(-n2ncc3cc(C)c(C4CN(C)CCO4)cc32)n1` (single isomer, unassigned) [Example E229, 1-(2-Methoxy-6-(5-methyl-6-(4-methylmorpholin-2-yl)-1H-indazol-1-yl)pyrimidin-4-yl)azetidin-3-ol], the IC50 was more than 10000 nM. To `CNC(=O)[C@H]1CN(c2cc(-n3ncc4cc(C)c(C5CCN(CCOC)CC5F)cc43)ncn2)CCO1` (single isomer, unassigned) [Example E29] belongs not above 100 nM; to `Cc1nc(N2CCOC(C(C)O)C2)cc(-n2ncc3cc(C)c(C4CCN(C5COC5)CC4)cc32)n1` (single isomer, unassigned) [Example E268, 1-(4-(2-Methyl-6-(5-methyl-6-(1-(oxetan-3-yl)piperidin-4-yl)-1H-indazol-1-yl)pyrimidin-4-yl)morpholin-2-yl)ethanol], not above 100 nM. As for `Cc1nc(-n2ncc3cc(C)c(C4CCN(C5COC5)CC4F)cc32)cc([C@H]2C[C@@H](O)C2)n1` (single isomer, unassigned) [Example E44, (cis)-(1s,3s)-3-(6-(6-(3-Fluoro-1-(oxetan-3-yl)piperidin-4-yl)-5-methyl-1H-indazol-1-yl)-2-methylpyrimidin-4-yl)cyclobutanol], the figure is not above 100 nM; as for `Cc1cc2cnn(-c3cc(N4CC(O)C4)nc(C4CC4)n3)c2cc1[C@H]1CCN(C)C[C@H]1F` (single isomer, unassigned) [Example E46, (cis)-1-(2-Cyclopropyl-6-(6-(3-fluoro-1-methylpiperidin-4-yl)-5-methyl-1H-indazol-1-yl)pyrimidin-4-yl)azetidin-3-ol], not above 100 nM; as for `Cc1nc(N2CC(OCCO)C2)cc(-n2ncc3cc(C)c([C@H]4CCN(C)C[C@H]4F)cc32)n1` (single isomer, unassigned) [Example E132, (cis)-2-((1-(6-(6-(3-Fluoro-1-methylpiperidin-4-yl)-5-methyl-1H-indazol-1-yl)-2-methylpyrimidin-4-yl)azetidin-3-yl)oxy)ethanol], not above 100 nM. Consider `COc1nc(N2CC(OCCO)C2)cc(-n2ncc3cc(C)c(C4CCOCC4)cc32)n1` [Example E237, 2-((1-(2-Methoxy-6-(5-methyl-6-(tetrahydro-2H-pyran-4-yl)-1H-indazol-1-yl)pyrimidin-4-yl)azetidin-3-yl)oxy)ethanol], for which the IC50 is not above 100 nM. On to `COc1nc(N2CC(O)C(F)C2)cc(-n2ncc3cc(C)c(C4CCN(C5COC5)CC4)cc32)n1` (single isomer, unassigned) [Example E219, (trans)-4-Fluoro-1-(2-methoxy-6-(5-methyl-6-(1-(oxetan-3-yl)piperidin-4-yl)-1H-indazol-1-yl)pyrimidin-4-yl)pyrrolidin-3-ol], for which the IC50 was not above 100 nM. In the case of `Cc1nc(N2CC(O)C2)cc(-n2ncc3cc(Cl)c(N4CCC(O)CC4)cc32)n1` [Example E258, 1-(5-Chloro-1-(6-(3-hydroxyazetidin-1-yl)-2-methylpyrimidin-4-yl)-1H-indazol-6-yl)piperidin-4-ol], the IC50 was not above 100 nM. Consider `Cc1nc(N2CC(O)C2)cc(-n2ncc3cc(C)c(C4CCCOC4)cc32)n1` (single isomer, unassigned) [Example E272, 1-(2-Methyl-6-(5-methyl-6-(tetrahydro-2H-pyran-3-yl)-1H-indazol-1-yl)pyrimidin-4-yl)azetidin-3-ol], for which the IC50 was more than 10000 nM.
